Assay results published in EP4603105A1, “PHARMACEUTICAL COMPOSITION CONTAINING CYCLIC COMPOUND HAVING SELECTIVE KRAS INHIBITORY EFFECT AGAINST HRAS AND NRAS” (CHUGAI SEIYAKU KABUSHIKI KAISHA, priority 2022, dated 2024).
Where a SMILES comes first, the peptide text is derived from it. Bridges are numbered along the chain shown (N, C = ends). [ ]: non-standard residue; d: D form. The star is where a group is joined. hPhe(3-Cl-4-CF3) = N[C@@H](CCc1ccc(C(F)(F)F)c(Cl)c1)C(=O)O; NPrPhe(4-CF3) = CCCN[C@@H](Cc1ccc(C(F)(F)F)cc1)C(=O)O; NMeGly(cPent) = CN[C@H](C(=O)O)C1CCCC1; NMeL = CN[C@@H](CC(C)C)C(=O)O; Morpholide = C1CN(*)CCO1; NMeA = CN[C@@H](C)C(=O)O; Ac5c = NC1(C(=O)O)CCCC1; Aze = O=C(O)[C@@H]1CCN1; Sar = CNCC(=O)O

How the values were obtained:
[1] = molecular target: GDP-bound NRAS wild-type protein (Homo sapiens, UniProt P01111); assay: Binding to NRAS by surface plasmon resonance (SPR), KD and KD ratio to KRAS
GDP-bound NRAS wild-type protein, sequence (P01111 whole entry): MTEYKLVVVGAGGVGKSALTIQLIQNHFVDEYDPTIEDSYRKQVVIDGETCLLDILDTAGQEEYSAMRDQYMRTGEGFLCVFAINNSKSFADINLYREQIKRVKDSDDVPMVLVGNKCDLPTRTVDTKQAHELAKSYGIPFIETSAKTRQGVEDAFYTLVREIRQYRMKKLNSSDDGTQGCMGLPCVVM
In short: (§1)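 Captured GDP-RAS (~100–300 RU) was exposed to increasing compound concentrations, 75 s per step, in running buffer with 10 µM GDP, 10 mM MgCl2 and 4% DMSO at pH 7.4.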

HRAS wild-type protein = HRAS wild-type protein (Homo sapiens, UniProt P01112); assay: Binding to HRAS by surface plasmon resonance (SPR), KD and KD ratio to KRAS
HRAS wild-type protein, sequence (P01112 whole entry): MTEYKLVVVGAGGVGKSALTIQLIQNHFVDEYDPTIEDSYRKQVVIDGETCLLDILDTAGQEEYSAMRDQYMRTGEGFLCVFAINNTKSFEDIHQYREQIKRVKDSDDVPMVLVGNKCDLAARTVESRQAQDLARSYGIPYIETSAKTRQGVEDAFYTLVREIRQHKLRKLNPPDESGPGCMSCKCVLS
In short: as §1

[2] = test system: human lung cancer strain NCI-H441; assay type: cell-based
In short: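 Step one: dispense the test compound in serial DMSO dilutions. Step three: add the reagent and measure […].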

[3] = ratio of KD value for GDP-bound NRAS wild-type protein to KD value for KRAS (SPR)
[4] = ratio of KD value for HRAS wild-type protein to KD value for KRAS (SPR)
[5] = ratio of KD for GDP-bound NRAS wild-type protein to KD for KRAS
[6] = ratio of KD for HRAS wild-type protein to KD for KRAS

IC50 [2] | Structure (SMILES) | NRAS /KRAS [1, 3] | HRAS /KRAS (HRAS wild-type protein; [4]) | NRAS /KRAS [1, 5] | HRAS /KRAS (HRAS wild-type protein; [6])
2.6 nM | CC[C@H](C)[C@@H]1NC(=O)[C@H](CC(F)(F)F)N(C)C(=O)C[C@@H](C(=O)N(C)C)N(C)C(=O)[C@H](C2CCCC2)N(C)C(=O)C2(CC(C)(C)C2)NC(=O)[C@@H]2C[C@H](C)CN2C(=O)[C@H](CCc2cc(F)c(C(F)(F)F)c(F)c2)NC(=O)CN(C)C(=O)[C@H](Cc2ccc(C(F)(F)F)cc2)N2CC/C=C\C[C@@H](C2=O)N(C)C(=O)CN(C)C1=O [PP1682] | AA (a compound having 20 or more is denoted as AA) | A (a compound having 10 or more and less than 20 is denoted as A) |  | 
815 nM | CCO[C@@H]1C[C@H]2C(=O)NC3(CCCC3)C(=O)N(C)[C@@H](C3CCCC3)C(=O)N(C)[C@H](C(=O)N(C)C)CC(=O)N(C)[C@@H](CC)C(=O)N[C@@H]([C@@H](C)CC)C(=O)N(C)CC(=O)N(C)[C@H]3CC(C)=C(C)CN(C3=O)[C@@H](Cc3ccc(C(F)(F)F)cc3)C(=O)N(C)CC(=O)N[C@@H](CCc3cc(F)c(C(F)(F)F)c(F)c3)C(=O)N2C1 [PP1050] |  |  | C (A compound having a KD ratio of 0.1 or more and less than 3 is denoted as C) | C (A compound having a KD ratio of 0.1 or more and less than 3 is denoted as C)
7.2 nM | CCO[C@@H]1C[C@H]2C(=O)NC3(CCC3)C(=O)N(C)[C@@H](C3CCCC3)C(=O)N(C)[C@H](C(=O)N3CCOCC3)CC(=O)N(C)[C@@H](CC)C(=O)N[C@@H]([C@@H](C)CC)C(=O)N(C)CC(=O)N(C)[C@H]3C[C@@H](C)CCN(C3=O)[C@@H](Cc3ccc(C(F)(F)F)cc3)C(=O)N(C)CC(=O)N[C@@H](CCc3cc(F)c(C(F)(F)F)c(F)c3)C(=O)N2C1 [PP1027] |  |  | C (A compound having a KD ratio of 0.1 or more and less than 3 is denoted as C) | B (a compound having 3 or more and less than 10 is denoted as B)
47.6 nM | CCCN1C(=O)[C@@H]2CCN2C(=O)[C@H](C)N(C)C(=O)[C@H]([C@@H](C)CC)NC(=O)[C@H](CC(C)C)N(C)C(=O)C[C@@H](C(=O)N2CCOCC2)NC(=O)[C@H](C2CCCC2)N(C)C(=O)C2(CCCC2)NC(=O)[C@@H]2CCCN2C(=O)[C@H](CCc2ccc(C(F)(F)F)c(Cl)c2)NC(=O)CN(C)C(=O)[C@@H]1Cc1ccc(C(F)(F)F)cc1 [PP0343] ([NMeL]I[NMeA][Aze][NPrPhe(4-CF3)][Sar][hPhe(3-Cl-4-CF3)]P[Ac5c][NMeGly(cPent)]D-Morpholide; lactam N-11) |  |  | C (A compound having a KD ratio of 0.1 or more and less than 3 is denoted as C) | B (a compound having 3 or more and less than 10 is denoted as B)
6 nM | CCCN(C)C(=O)[C@@H]1CC(=O)N(C)[C@@H](COC)C(=O)N[C@@H]([C@@H](C)CC)C(=O)N(C)CC(=O)N(C)[C@H]2C/C=C\CCN(C2=O)[C@@H](Cc2ccc(C(F)(F)F)cc2)C(=O)N(C)CC(=O)N[C@@H](CCc2cc(F)c(C(F)(F)F)c(F)c2)C(=O)N2C[C@H](OCC)C[C@H]2C(=O)NC2(CC(C)(C)C2)C(=O)N(C)[C@@H](C2CCCC2)C(=O)N1C [PP1672] | A (a compound having 10 or more and less than 20 is denoted as A) | A (a compound having 10 or more and less than 20 is denoted as A) |  | 
2.4 nM | CC[C@H](C)[C@@H]1NC(=O)[C@H](COC)N(C)C(=O)C[C@@H](C(=O)N(C)C)N(C)C(=O)[C@H](C2CCCC2)N(C)C(=O)C2(CC(C)(C)C2)NC(=O)[C@@H]2CC(F)(F)CN2C(=O)[C@H](CCc2cc(F)c(C(F)(F)F)c(F)c2)NC(=O)CN(C)C(=O)[C@H](Cc2ccc(C(F)(F)F)cc2)N2CC/C=C\C[C@@H](C2=O)N(C)C(=O)CN(C)C1=O [PP1717] | A (a compound having 10 or more and less than 20 is denoted as A) | A (a compound having 10 or more and less than 20 is denoted as A) |  | 
